Test results taken from patent US7507792B2, “MDA-7 proteins and methods of use thereof” (The Trustees of Columbia University In The City of New York, priority 1993, dated 2009).

Assays:
Format in all cases: cell-based, human
mda-8 = mda-8 expression (Northern blotting); settings: H0-1
Method: (§1) The mass excision of the library was performed using ExAssist helper phage as described above. The SOLR strain of Escherichia coli and cDNA phagemids were mixed at 37° C. for 15 min and plated onto LB plates containing ampicillin and IPTG/X-gal. White colonies were chosen at random, isolated and grown in LB medium. Plasmid minireps and restriction enzyme digestions were performed to confirm the presence of inserts. The inserts were isolated and used as robes for Northern blotting analysis (5,25). […] Radiolabeled probes were generated by random oligonucleotide priming (25). Prehybridization, hybridization, posthybridization washes, and autoradiography were performed as described (5,18,25).

mda-4 = mda-4 expression (Northern blotting); settings: H0-1
Method: as §1

HL-525 cells = experiment: OKM1 reactivity (immunofluorescence); settings: TPA 3 nM, RA 1 μM or Vit D3 400 nM, percent OKM1 positive cells
Method: (§2) HL-60 cells were originally provided by Dr. R. C. Gallo (National Cancer Institute, Bethesda, Md.) (Collins et al., 1978; Huberman & Callaham, 1979). HL-60 cells designated HL-525 were derived by cloning HL-60 cells after subculturing 102 times in the presence of increasing concentrations (up to 3 μM) of TPA at 5- to 8-day intervals (Homma et al., 1986; Mitchell et al., 1986). […] Prior to the experiments described in this study, the HL-525 cells were subcultured more than 20 times in the absence of TPA. Cells were grown in 100-mm tissue culture dishes in RPMI 1640 medium supplemented with 20% fetal bovine serum, penicillin (100 units/ml) and streptomycin (100 μg/ml) (Grand Island Biological Co., NY) at 37° C. in an atmosphere of 5% CO2 in air in a humidified incubator. The 1,25-(OH)2D3(Vit D3) and TPA were dissolved in a final concentration of 0.01% DMSO, and all-trans retinoic acid (RA) was dissolved in 0.1% DMSO in culture medium. […] Control cultures were treated with DMSO at a final concentration of 0.1% in culture medium. For experiments designed to test the effect of DMSO on HL-60 and HL-525 cells, DMSO was added to tissue culture medium at a final concentration of 1%. Stock solutions of CHX (10 mg/ml) were prepared in culture medium. CHX was added at a final concentration of 10 μg/ml. To examine a requirement for protein synthesis on mda-6 gene expression, HL-60 or HL-525 cells were seeded into 150 mm Petri dishes (5×10^5 cells/ml) in 30 ml of medium. CHX was added to a final concentration of 10 μg/ml 15 min prior to the addition of TPA to 3 nM. Cells were harvested at various times after addition of TPA for subsequent RNA isolation and analysis.
(§3) Cell counts were determined by hemocytometer chamber counting. Immunofluorescence tests for reactivity with the OKM1 antibody (Ortho Pharmaceutical Corp., Raritan, N.J.) were performed as previously described (Murao et al., 1983).

HL-60 cells = experiment: OKM1 reactivity (immunofluorescence); settings: TPA 3 nM, RA 1 μM or Vit D3 400 nM, percent OKM1 positive cells
Method: as §2, §3

[1] = tested on: MDA-6 (WAF1/CIP1/SDI1) protein; experiment: Immunoprecipitation of MDA-6 (WAF1/CIP1/SDI1) protein in HL-60 cells; settings: TPA, DMSO (1%) or RA (1 μM), 12, 24, 48 and 72 h tested
Method: Immunoprecipitation analyses were performed as described previously (Duigou et al., 1991; Su et al. 1993). Logarithmically growing HL-60 cells were either untreated or treated for 12, 24, 48 or 72 h with TPA ([…]), RA (1 μM) or DMSO (1%) in 10-cm plates. Cultures were starved of methionine for 1 h at 37° C. in methionine-free medium, cells were concentrated by pelleting and labeled for 4 h at 37° C. in 1 ml of the same medium with 100 μCi of [^35S] (NEN; Express ^35S). After labeling, the cells were washed twice with ice-cold phosphate-buffered saline and lysed for 1 h on ice by the addition of RIPC (20 mM Tris-base, pH 7.5, 500 mM NaCl, 0.05% Nonidet P-40, 100 μg/ml phenylmethylsulfonyl fluoride and 0.02% sodium azide). The lysate was clarified by centrifugation in an Eppendorf microfuge at 10,000×g for 10 min at 4° C. Samples containing 4×10^6 counts were incubated with 2 μg of WAF1/CIP1 (C-19) (Santa Cruz Biotechnology) (or MDA-6 peptide-derived) rabbit polyclonal IgG or actin monoclonal antibody (Oncogene Sciences) with rocking at 4° C. for 24 h. The next day, 30 μl (packed volume) of protein G-agarose (Oncogene Sciences) was added to each tube, and incubation with rocking at 4° C. continued for another hour. The protein G pellets were then washed five times with 1 ml of ice-cold RIPC:phosphate-buffered saline (1:1, v/v). Thirty μl of sodium dodecyl sulfate-polyacrylamide gel electrophoresis buffer were added to the pellets, and the sample was heated at 87° C. for 3 min. The samples were loaded onto an 10% polyacrylamide gel and run overnight at 40 V. The gel contained Rainbow protein markers (Amersham) for sizing. Gels were fixed with 10% acetic acid plus 10% methanol for 30 min, incubated in DMSO for 30 min, incubated with 10% 2,5-diphenyloxazole in DMSO for 30 min, washed three times with cold water (10 min each), dried and exposed to film.

[2] = 24 hours, doses of FIG. 19, phenyl butyrate 24 hours, 4 days or 7 days
[3] = 96 hours, doses of FIG. 15 legend

Structure (SMILES) | mda-8 expression (mda-8; [2]) | mda-8 expression (mda-8; [3]) | mda-4 expression (mda-4; [3]) | OKM1 reactivity, Days of induction 4 (HL-525 cells) [%] | OKM1 reactivity, Days of induction 6 (HL-525 cells) [%] | OKM1 reactivity, Days of induction 2 (HL-60 cells) [%] | OKM1 reactivity, Days of induction 4 (HL-60 cells) [%] | OKM1 reactivity, Days of induction 6 (HL-60 cells) [%] | time of treatment at which MDA-6 protein is detected [1] [h] | mda-4 expression (mda-4; [2])
C=C(C)[C@@]12O[C@@]3(c4ccccc4)O[C@@H]1[C@@H]1[C@@H]4O[C@]4(CO)[C@@H](O)[C@]4(O)C(=O)C(C)=C[C@H]4[C@@]1(O3)[C@H](C)[C@H]2OC(=O)/C=C/C=C/c1ccccc1 [MEZ, mezerein] | No change in expression | No change in expression | No or only a small change in expression |  |  |  |  |  |  | 
CC1=C(/C=C/C(C)=C/C=C/C(C)=C/C(=O)O)C(C)(C)CCC1 [RA, trans-retinoic acid] |  | No change in expression |  | 10 | 13 | 49 | 76 | 77 | 12 | No or only a small change in expression
CCCCCCCCCCCCCC(=O)O[C@@H]1[C@@H](C)[C@@]2(O)[C@@H](C=C(CO)C[C@]3(O)C(=O)C(C)=C[C@@H]23)[C@@H]2C(C)(C)[C@]12OC(C)=O [TPA, 12-O-tetradecanoyl-phorbol-13-acetate] |  |  |  | 8 | 4 | 55 | 81 | 95 | 12 | 
